From ChEMBL document CHEMBL1201862, “PubChem BioAssay data set” (2004)
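48-hour exposure; five concentrations; linearly interpolated endpoints. GI50: concentration for 50% inhibition of growth.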 Activity calls are given as the source filed them. No stated cut-off is given here; in the data, active = GI50 up to about 1.1 µM and inactive = higher.

Columns and labels:
Assay in all cases: inhibition of tumour cell growth, NCI panel, 48 h
[1] = system: HL-60
[2] = system: M19-MEL
[3] = system: RXF 393
[4] = system: NCI-H460
[5] = system: UACC-62
[6] = system: NCI-H23
[7] = system: KM12
[8] = system: OVCAR-3
[9] = system: XF498
[10] = system: DMS-114
[11] = system: U-251
[12] = system: HCT-116
[13] = system: A498
[14] = system: NCI/ADR-RES
[15] = system: SNB-78
[16] = system: ACHN
[17] = system: T47D
[18] = system: MDA-N
[19] = system: PC-3
[20] = system: DU-145

Cc1c2cnccc2c(C)c2c1c1ccccc1n2CCCCCCNCc1ccccc1
GI50 [1]: 1.03 µM (active)
GI50 [2]: 2.09 µM (inactive)
GI50 [3]: 2.04 µM (inactive)
GI50 [4]: 0.538 µM (active)
GI50 [5]: 2.32 µM (inactive)
GI50 [6]: 1.91 µM (inactive)
GI50 [7]: 1.21 µM (inactive)
GI50 [8]: 1.87 µM (inactive)
GI50 [9]: 2.29 µM (inactive)
GI50 [10]: 1.83 µM (inactive)
GI50 [11]: 2.05 µM (inactive)
GI50 [12]: 0.649 µM (active)
GI50 [13]: 2.11 µM (inactive)
GI50 [14]: 0.74 µM (active)
GI50 [15]: 1.96 µM (inactive)

O=C1C(Cl)N(c2ccccc2)C1c1c[nH]c2ccccc12 (centres undefined)
GI50 [1]: > 100 µM (inactive)
GI50 [2]: > 100 µM (inactive)
GI50 [3]: > 100 µM (inactive)
GI50 [4]: > 100 µM (inactive)
GI50 [5]: > 100 µM (inactive)
GI50 [6]: > 100 µM (inactive)
GI50 [7]: > 100 µM (inactive)
GI50 [8]: > 100 µM (inactive)
GI50 [9]: > 100 µM (inactive)
GI50 [10]: > 100 µM (inactive)
GI50 [11]: > 100 µM (inactive)
GI50 [12]: > 100 µM (inactive)

c1ccc2cc3n[se]nc3cc2c1
GI50 [1]: > 100 µM (inactive)
GI50 [3]: > 100 µM (inactive)
GI50 [5]: > 100 µM (inactive)
GI50 [6]: 39.7 µM (inactive)
GI50 [7]: > 100 µM (inactive)
GI50 [10]: > 100 µM (inactive)
GI50 [11]: > 100 µM (inactive)
GI50 [16]: > 100 µM (inactive)
GI50 [15]: > 100 µM (inactive)

COc1ccc2c(c1)CC1Cc3ccccc3CCN1C2 (centres undefined)
GI50 [1]: 53.1 µM (inactive)
GI50 [3]: 25.7 µM (inactive)
GI50 [4]: 38.9 µM (inactive)
GI50 [5]: 55.1 µM (inactive)
GI50 [6]: 70.3 µM (inactive)
GI50 [7]: 21.6 µM (inactive)
GI50 [8]: 35.1 µM (inactive)
GI50 [11]: 76 µM (inactive)
GI50 [12]: 40.1 µM (inactive)
GI50 [17]: 35.2 µM (inactive)
GI50 [18]: 47.9 µM (inactive)
GI50 [19]: 25.9 µM (inactive)
GI50 [16]: 64 µM (inactive)
GI50 [20]: 61.2 µM (inactive)
GI50 [14]: 52 µM (inactive)

COc1nc2ccc(CNc3ccc(C(=O)NC(CCC(=O)O)C(=O)O)cc3)cc2nc1OC (centres undefined)
GI50 [1]: > 100 µM (inactive)
GI50 [3]: > 100 µM (inactive)
GI50 [4]: > 100 µM (inactive)
GI50 [5]: > 100 µM (inactive)
GI50 [6]: > 100 µM (inactive)
GI50 [7]: > 100 µM (inactive)
GI50 [8]: > 100 µM (inactive)
GI50 [11]: > 100 µM (inactive)
GI50 [17]: > 100 µM (inactive)
GI50 [18]: > 100 µM (inactive)
GI50 [19]: 44.6 µM (inactive)
GI50 [13]: > 100 µM (inactive)
GI50 [16]: > 100 µM (inactive)
GI50 [20]: > 100 µM (inactive)
GI50 [14]: > 100 µM (inactive)

C=C(C(=O)C(=O)Oc1ccc(Cl)cc1)C(=O)c1ccc(C)cc1
GI50 [1]: 17.9 µM (inactive)
GI50 [2]: 17.7 µM (inactive)
GI50 [3]: 26.4 µM (inactive)
GI50 [4]: 83 µM (inactive)
GI50 [5]: 41.4 µM (inactive)
GI50 [6]: > 100 µM (inactive)
GI50 [7]: 21.5 µM (inactive)
GI50 [8]: 46.8 µM (inactive)
GI50 [9]: > 100 µM (inactive)
GI50 [10]: 30.9 µM (inactive)
GI50 [11]: 20.7 µM (inactive)
GI50 [12]: 16.7 µM (inactive)
GI50 [13]: > 100 µM (inactive)
GI50 [16]: 91.4 µM (inactive)
GI50 [15]: 65 µM (inactive)

C/C(=C1/N=C(c2cc([N+](=O)[O-])ccc2Cl)N(c2ccc(Br)cc2)C1=O)c1cc2ccccc2oc1=O
GI50 [1]: 23.7 µM (inactive)
GI50 [2]: 5.89 µM (inactive)
GI50 [4]: 26.3 µM (inactive)
GI50 [5]: 18.2 µM (inactive)
GI50 [6]: 38.3 µM (inactive)
GI50 [7]: 21.8 µM (inactive)
GI50 [8]: 49.2 µM (inactive)
GI50 [10]: 10.1 µM (inactive)
GI50 [11]: 48.3 µM (inactive)
GI50 [12]: 24.5 µM (inactive)
GI50 [13]: 20.7 µM (inactive)
GI50 [16]: 6 µM (inactive)
GI50 [15]: 31.6 µM (inactive)

O=C1OC2(OC2c2ccc(Cl)cc2)c2ccccc21 (centres undefined)
GI50 [1]: 34.3 µM (inactive)
GI50 [2]: > 100 µM (inactive)
GI50 [3]: 62.7 µM (inactive)
GI50 [4]: > 100 µM (inactive)
GI50 [5]: > 100 µM (inactive)
GI50 [7]: 71.1 µM (inactive)
GI50 [8]: > 100 µM (inactive)
GI50 [9]: 43.4 µM (inactive)
GI50 [10]: 64.7 µM (inactive)
GI50 [12]: > 100 µM (inactive)
GI50 [16]: 94.2 µM (inactive)

C=CCP(=O)(CC=C)C(Cl)Cl
GI50 [1]: > 100 µM (inactive)
GI50 [4]: > 100 µM (inactive)
GI50 [6]: > 100 µM (inactive)
GI50 [8]: > 100 µM (inactive)
GI50 [11]: > 100 µM (inactive)
GI50 [12]: > 100 µM (inactive)
GI50 [17]: > 100 µM (inactive)
GI50 [18]: > 100 µM (inactive)
GI50 [19]: > 100 µM (inactive)
GI50 [16]: > 100 µM (inactive)
GI50 [20]: > 100 µM (inactive)
GI50 [14]: > 100 µM (inactive)

O=[N+]([O-])C(=C/c1ccccc1)/C(=C\c1ccccc1)[N+](=O)[O-]
GI50 [3]: 10.2 µM (inactive)
GI50 [4]: 14.8 µM (inactive)
GI50 [5]: 16.6 µM (inactive)
GI50 [6]: 15.2 µM (inactive)
GI50 [7]: 15.4 µM (inactive)
GI50 [8]: 19.5 µM (inactive)
GI50 [11]: 15.6 µM (inactive)
GI50 [12]: 17.8 µM (inactive)
GI50 [17]: 23.8 µM (inactive)
GI50 [18]: 17.1 µM (inactive)
GI50 [19]: 19.3 µM (inactive)
GI50 [16]: 16.9 µM (inactive)
GI50 [20]: 16.1 µM (inactive)
GI50 [14]: 18.7 µM (inactive)

COc1cc2c(cc1OC)-c1cc3ccccc3c(=O)n1CC2
GI50 [3]: 2.33 µM (inactive)
GI50 [4]: 28.2 µM (inactive)
GI50 [5]: 18.2 µM (inactive)
GI50 [6]: 37.5 µM (inactive)
GI50 [7]: 13.2 µM (inactive)
GI50 [8]: 22 µM (inactive)
GI50 [11]: 16.4 µM (inactive)
GI50 [12]: 10.4 µM (inactive)
GI50 [17]: 21.8 µM (inactive)
GI50 [18]: 28.2 µM (inactive)
GI50 [19]: 2.68 µM (inactive)
GI50 [16]: 37.5 µM (inactive)
GI50 [20]: 25.6 µM (inactive)
GI50 [14]: 25.2 µM (inactive)

NC1(C(=O)O)CCCC1 [CYCLOLEUCINE]
GI50 [1]: > 625 µM (inactive)
GI50 [2]: > 625 µM (inactive)
GI50 [3]: > 625 µM (inactive)
GI50 [4]: > 625 µM (inactive)
GI50 [5]: > 625 µM (inactive)
GI50 [6]: > 625 µM (inactive)
GI50 [7]: > 625 µM (inactive)
GI50 [8]: > 62.5 µM (inactive)
GI50 [9]: 5.77 µM (inactive)
GI50 [10]: > 625 µM (inactive)
GI50 [11]: > 625 µM (inactive)
GI50 [12]: > 625 µM (inactive)
GI50 [14]: > 625 µM (inactive)
GI50 [15]: > 244 µM (inactive)
